Source: US9562031B1, “Phenethyldihydrobenzodioxolones and methods of use” (Sequoia Sciences, Inc., priority 2015, dated 2017)
Read-outs that look alike come from different tables or passages of the source.

How the values were obtained:
[1] = system: M14 (amelanotic melanoma) cells; assay: antiproliferation assay (72 h, CELLTITER 96), M14; type: cell-based, human; conditions: Homo sapiens
Description: (§1) All of the compounds shown in Table 3-Table 8 below were prepared synthetically as described in EXAMPLE I. The compounds were tested for their ability to inhibit the proliferation of human cancer cells in vitro as described in the following paragraph. Table 3-Table 8 list the IC50 values in the M14 and NCI-H460 human cancer cell lines. IC50 is defined as the concentration of compound necessary to achieve 50% of the maximum growth inhibition.
(§2) For the antiproliferation assay, NCI-H460 (large cell lung carcinoma) or M14 (amelanotic melanoma) cells were grown in RPMI-1640 with 10% FBS supplemented with L-glutamine and HEPES. Cells were seeded into 96-well plates at 5×10^2 to 5×10^4 cells/well and allowed to adhere overnight; the medium was then removed. A stock solution of test compound in DMSO was diluted in medium to generate a series of working solutions. Aliquots (100 μl) of the working solutions were then added to the appropriate test wells to expose cells to the final concentrations of compound in a total volume of 100 μl. Seven different concentrations were tested, with 2-5 wells per concentration. Camptothecin was used as a positive control; wells containing vehicle without compound were used as negative controls. Plates were kept for 72 h in a 37° C., 5% CO2 incubator. After incubation, viable cells were detected with the CELLTITER 96 AQueous Non-Radioactive Cell Proliferation Assay (Promega), and IC50 values were determined using GraphPad Prism 5 software.

[2] = system: NCI-H460 (large cell lung carcinoma) cells; assay: antiproliferation assay (72 h, CELLTITER 96), NCI-H460; type: cell-based, human; conditions: Homo sapiens, read-out: NCI-H460 IC50
Description: as §1, §2

Compound	IC50 ([1]; Table 7) [nM]	IC50 ([2]; NCI-H460, Table 7) [nM]	also measured
COc1cc(F)c(CC(C)[C@]23C[C@H](C)C(=O)C=C2OCO3)cc1F (stereo partly drawn) [Compound 56, (6S,7aR)-7a-(1-(2,5-difluoro-4-methoxyphenyl)propan-2-yl)-6-methyl-7,7a-dihydrobenzo[d][1,3]dioxol-5(6H)-one]	140	430	–
CC[C@H]1C[C@]2([C@@H](C)Cc3cc(F)c(OC)cc3F)OCOC2=CC1=O [Compound 57]	140	200	–
CC[C@H]1C[C@]2([C@H](C)Cc3cc(F)c(OC)cc3F)OCOC2=CC1=O [Compound 58]	290	440	–
CCC[C@H]1C[C@]2([C@@H](C)Cc3cc(O)c(OC)cc3F)OCOC2=CC1=O [Compound 59]	58	170	–
CCC[C@H]1C[C@]2([C@H](C)Cc3cc(O)c(OC)cc3F)OCOC2=CC1=O [Compound 60]	5.9	67	–
C#CC[C@H]1C[C@]2([C@@H](C)Cc3ccc(OC)cc3F)OCOC2=CC1=O [Compound 62, (6S,7aR)-7a-((S)-1-(2-fluoro-4-methoxyphenyl)propan-2-yl)-6-(prop-2-yn-1-yl)-7,7a-dihydrobenzo[d][1,3]dioxol-5(6H)-one]	200	73	–
C=C(F)C[C@H]1C[C@]2([C@@H](C)Cc3cc(F)c(OC)cc3F)OCOC2=CC1=O [Compound 64, (6R,7aR)-7a-((S)-1-(2,5-difluoro-4-methoxyphenyl)propan-2-yl)-6-(2-fluoroallyl)-7,7a-dihydrobenzo[d][1,3]dioxol-5(6H)-one]	140	220	–
COC[C@H]1C[C@]2([C@@H](C)Cc3cc(O)c(OC)cc3F)OCOC2=CC1=O [Compound 65, (6R,7aR)-7a-((S)-1-(2-fluoro-5-hydroxy-4-methoxyphenyl)propan-2-yl)-6-(methoxymethyl)-7,7a-dihydrobenzo[d][1,3]dioxol-5(6H)-one]	640	1200	–
COc1cc(F)c(C[C@H](C)[C@]23C[C@H](Cc4ccccc4)C(=O)C=C2OCO3)cc1O [Compound 66, (6S,7aR)-6-benzyl-7a-((S)-1-(2-fluoro-5-hydroxy-4-methoxyphenyl)propan-2-yl)-7,7a-dihydrobenzo[d][1,3]dioxol-5(6H)-one]	1600	2600	–
C/C=C/C[C@H]1C[C@]2([C@@H](C)Cc3ccc(OC)cc3F)OCOC2=CC1=O [Compound 67, (6S,7aR)-6-((E)-but-2-en-1-yl)-7a-((S)-1-(2-fluoro-4-methoxyphenyl)propan-2-yl)-7,7a-dihydrobenzo[d][1,3]dioxol-5(6H)-one]	210	250	–
COc1ccc(C[C@H](C)[C@]23C[C@H](CC=C(F)F)C(=O)C=C2OCO3)c(F)c1 [Compound 68, (6S,7aR)-6-(3,3-difluoroallyl)-7a-((S)-1-(2-fluoro-4-methoxyphenyl)propan-2-yl)-7,7a-dihydrobenzo[d][1,3]dioxol-5(6H)-one]	860	820	–
COc1cc(F)c(C[C@H](C)[C@]23C[C@H](CCCF)C(=O)C=C2OCO3)cc1O [Compound 69, (6S,7aR)-7a-((S)-1-(2-fluoro-5-hydroxy-4-methoxyphenyl)propan-2-yl)-6-(3-fluoropropyl)-7,7a-dihydrobenzo[d][1,3]dioxol-5(6H)-one]	570	510	–
CCC[C@H]1C[C@]2([C@@H](C)Cc3ccc(OC)c(OC)c3)OCOC2=CC1=O [Compound 70, (6S,7aR)-7a-((S)-1-(3,4-dimethoxyphenyl)propan-2-yl)-6-propyl-7,7a-dihydrobenzo[d][1,3]dioxol-5(6H)-one]	7400	> 4000	–
C=CC[C@H]1C[C@]2(CCc3ccc(OC)c(OC)c3)OCOC2=CC1=O [Compound 72, (6S,7aS)-6-allyl-7a-(3,4-dimethoxyphenethyl)-7,7a-dihydrobenzo[d][1,3]dioxol-5(6H)-one]	–	–	IC50 ([1]; Table 8): 2000 nM; IC50 ([2]; NCI-H460, Table 8): 3200 nM
C=CC[C@H]1C[C@]2([C@@H](C)Cc3ccc(OC)c(OC(=O)N(C)C)c3)OCOC2=CC1=O [Compound 73, 5-((S)-2-((3aR,5S)-5-allyl-6-oxo-3a,4,5,6-tetrahydrobenzo[d][1,3]dioxol-3a-yl)propyl)-2-methoxyphenyl dimethylcarbamate]	–	–	IC50 ([1]; Table 4): > 20000 nM; IC50 ([2]; NCI-H460, Table 4): > 20000 nM
C/C=C/[C@H]1C[C@]2([C@H](C)Cc3cc(O)c(OC)cc3F)OCOC2=CC1=O [Compound 74, (6R,7aR)-7a-((R)-1-(2-fluoro-5-hydroxy-4-methoxyphenyl)propan-2-yl)-6-((E)-prop-1-en-1-yl)-7,7a-dihydrobenzo[d][1,3]dioxol-5(6H)-one]	120	290	–
C/C=C/[C@H]1C[C@]2([C@@H](C)Cc3cc(O)c(OC)cc3F)OCOC2=CC1=O [Compound 75, (6R,7aR)-7a-((S)-1-(2-fluoro-5-hydroxy-4-methoxyphenyl)propan-2-yl)-6-((E)-prop-1-en-1-yl)-7,7a-dihydrobenzo[d][1,3]dioxol-5 (6H)-one]	510	860	–
COc1cc(F)c(C[C@H](C)[C@]23C[C@H](CCSC)C(=O)C=C2OCO3)cc1O [Compound 76, (6R,7aR)-7a-((S)-1-(2-fluoro-5-hydroxy-4-methoxyphenyl)propan-2-yl)-6-(2-(methylthio)ethyl)-7,7a-dihydrobenzo[d][1,3]dioxol-5(6H)-one]	300	450	–
CC[C@H](C)[C@H]1C[C@]2([C@@H](C)Cc3cc(O)c(OC)cc3F)OCOC2=CC1=O [Compound 77, (6R,7aR)-6-((S)-sec-butyl)-7a-((S)-1-(2-fluoro-5-hydroxy-4-methoxyphenyl)propan-2-yl)-7,7a-dihydrobenzo[d][1,3]dioxol-5(6H)-one]	110	550	–
COCC[C@H]1C[C@]2([C@@H](C)Cc3cc(O)c(OC)cc3F)OCOC2=CC1=O [Compound 78, (6S,7aR)-7a-((S)-1-(2-fluoro-5-hydroxy-4-methoxyphenyl)propan-2-yl)-6-(2-methoxyethyl)-7,7a-dihydrobenzo[d][1,3]dioxol-5(6H)-one]	190	270	–
C=C(Cl)C[C@H]1C[C@]2([C@@H](C)Cc3ccc(OC)cc3F)OCOC2=CC1=O [Compound 79, (6R,7aR)-6-(2-chloroallyl)-7a-((S)-1-(2-fluoro-4-methoxyphenyl)propan-2-yl)-7,7a-dihydrobenzo[d][1,3]dioxol-5(6H)-one]	1300	2500	–
C=C(C)C[C@H]1C[C@]2([C@@H](C)Cc3cc(O)c(OC)cc3F)OCOC2=CC1=O [Compound 80, (6S,7aR)-7a-((S)-1-(2-fluoro-5-hydroxy-4-methoxyphenyl)propan-2-yl)-6-(2-methylallyl)-7,7a-dihydrobenzo[d][1,3]dioxol-5(6H)-one]	220	370	–
C=CC[C@H]1C[C@]2([C@@H](C)Cc3cc(F)c(OC)cc3F)O[C@H](C)OC2=CC1=O [Compound 82, (2R,6S,7aR)-6-allyl-7a-((S)-1-(2,5-difluoro-4-methoxyphenyl)propan-2-yl)-2-methyl-7,7a-dihydrobenzo[d][1,3]dioxol-5(6H)-one]	–	–	IC50 ([1]; Table 8): > 20000 nM; IC50 ([2]; NCI-H460, Table 8): 5200 nM
C=CC[C@H]1C[C@]2([C@@H](C)Cc3ccc4c(c3)OCO4)OCOC2=CC1=O [Compound 83, (6S,7aR)-6-allyl-7a-((S)-1-(benzo[d][1,3]dioxol-5-yl)propan-2-yl)-7,7a-dihydrobenzo[d][1,3]dioxol-5(6H)-one]	–	–	IC50 ([1]; Table 8): 650 nM; IC50 ([2]; NCI-H460, Table 8): 390 nM
C=CC[C@H]1C[C@]2([C@H](C)Cc3ccc(OC)c4occc34)OCOC2=CC1=O [Compound 84, (6S,7aR)-6-allyl-7a-((R)-1-(7-methoxybenzofuran-4-yl)propan-2-yl)-7,7a-dihydrobenzo[d][1,3]dioxol-5(6H)-one]	–	–	IC50 ([1]; Table 8): > 20000 nM; IC50 ([2]; NCI-H460, Table 8): 2600 nM
C=CC[C@H]1C[C@]2([C@@H](C)Cc3ccc(OC)c4occc34)OCOC2=CC1=O [Compound 85, (6S,7aR)-6-allyl-7a-((S)-1-(7-methoxybenzofuran-4-yl)propan-2-yl)-7,7a-dihydrobenzo[d][1,3]dioxol-5(6H)-one]	–	–	IC50 ([1]; Table 8): 630 nM; IC50 ([2]; NCI-H460, Table 8): 730 nM
C=CC[C@H]1C[C@]2([C@@H](C)Cc3ccc(OC)nc3)OCOC2=CC1=O [Compound 86, (6S,7aR)-6-allyl-7a-((S)-1-(6-methoxypyridin-3-yl)propan-2-yl)-7,7a-dihydrobenzo[d][1,3]dioxol-5(6H)-one]	–	–	IC50 ([1]; Table 8): 180 nM; IC50 ([2]; NCI-H460, Table 8): 330 nM
C=CC[C@H]1C[C@]2([C@@H](CC)Cc3ccc(OC)c(OC)c3)OCOC2=CC1=O [Compound 87, (6S,7aR)-6-allyl-7a-(1-(3,4-dimethoxyphenyl)butan-2-yl)-7,7a-dihydrobenzo[d][1,3]dioxol-5(6H)-one]	–	–	IC50 ([1]; Table 8): 2600 nM; IC50 ([2]; NCI-H460, Table 8): 11000 nM
C=CC[C@H]1C[C@]2(C(C)Cc3ccc(OC)c(OC)c3)OCOC2=C(C)C1=O (stereo partly drawn) [Compound 88, (6S,7aR)-6-allyl-7a-(1-(3,4-dimethoxyphenyl)propan-2-yl)-4-methyl-7,7a-dihydrobenzo[d][1,3]dioxol-5(6H)-one]	–	–	IC50 ([1]; Table 8): 4200 nM; IC50 ([2]; NCI-H460, Table 8): 4600 nM
